Measurements as given in patent US8999991B2, “Inhibitors of the renal outer medullary potassium channel” (Merck Sharp & Dohme Corp., priority 2011, dated 2015).

Target: T1, hROMK (hKir1.1) (Homo sapiens, UniProt P48048)
T1 construct: expressed in transfected cells; HEK-hKir1.1)
T1 sequence (P48048 1-391): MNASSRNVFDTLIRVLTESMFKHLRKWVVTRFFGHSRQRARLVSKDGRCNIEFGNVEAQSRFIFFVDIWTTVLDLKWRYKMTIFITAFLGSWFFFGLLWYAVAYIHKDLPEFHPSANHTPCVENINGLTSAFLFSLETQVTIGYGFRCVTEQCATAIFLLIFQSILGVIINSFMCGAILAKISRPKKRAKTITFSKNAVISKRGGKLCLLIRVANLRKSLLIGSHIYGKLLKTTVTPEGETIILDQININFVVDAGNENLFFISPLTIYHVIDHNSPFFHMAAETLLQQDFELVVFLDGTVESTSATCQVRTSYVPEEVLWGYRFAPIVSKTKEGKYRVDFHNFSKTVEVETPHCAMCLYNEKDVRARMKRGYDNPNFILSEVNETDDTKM
Experiment: Thallium Flux Assay (ROMK channel functional thallium flux assay, FLIPR-Tetra, 384 wells)
Assay type: cell-based
Details: HEK293 cells stably expressing hROMK (hKir1.1); 30 min incubation with test compound
Method: The following Thallium Flux Assay was performed on the final product compounds in all the Examples. This assay makes use of the ability of thallium to permeate through open ROMK channels and increase the fluorescence of a dye previously loaded into the cells. Under control conditions, cells loaded with dye and exposed to thallium-containing medium display a time-dependent increase in fluorescence, the rate of which depends on number of functional channels. When cells are incubated in the presence of a channel inhibitor, the increase in fluorescence is attenuated in a concentration-dependent manner, and IC50 values of inhibition by compounds can be accurately determined. This assay has been established with cell lines expressing either human, or rat ROMK channels, and operates in 384-well format.
HEK293 cells stably expressing hROMK (hKir1.1) were grown at 37° C. in a 10% CO2 humidified incubator in complete growth media: Dulbecco's Modified Eagle Medium supplemented with non-essential amino acids, Penicillin/Streptomycin/Glutamine, G418 and FBS. At >80% confluency, aspirate the media from the flask and rinse with 10 mL Calcium/Magnesium-free PBS. Add 5 mL of 1× trypsin (prepared in Ca/Mg Free PBS) to T-225 flask and return flask to 37° C./CO2 incubator for 2-3 minutes. To dislodge the cell, gently bang the side of the flask with your hand. Triturate the cells completely and then transfer the cells to 25 mL complete media. Centrifuge at 1,500 rpm for 6 min followed by resuspension in complete growth media and determine cell concentration. For typical re-seeding, 4E6 cells/T-225 flask will attain >80% confluency in 4 days. Under ideal growth conditions and appropriate tissue culture practices, this cell line is stable for 40-45 passages.
• FluxOR™ Reagent (Component A) • FluxOR™ Assay Buffer (Component B)—10× Concentrate • PowerLoad™ Concentrate (Component C)—100× Concentrate • Probenecid (Component D)—Lyophilized sample is kept at −20° C. Water soluble, 100× after solubilization in 1 mL water. […] Store at 4° C. • Thallium sulfate (Tl2SO4) Concentrate (Component G)—50 mM in water. Store at 4° C. • DMSO (dimethyl sulfoxide, Component H)—1 mL (100%) Reagent Preparation: FluxOR Working Solutions • 1000× FluxOR™ Reagent: Reconstitute a vial of component A in 100 μl DMSO; Mix well; Store 10 μl aliquots at −20° C. • 1× FluxOR™ Assay Buffer: Dilute Component B 10-fold with water; Adjust pH to 7.4 with Hepes/NaOH; Filter and store at 4° C. • Probenecid/Assay Buffer: 100 mL of 1× FluxOR™ Assay Buffer; 1 mL of reconstituted component D; Store at 4° C. • Loading Buffer (per microplate): 10 μl 1000× FluxOR™ Reagent; 100 μl component C; 10 mL Probenecid/Assay Buffer • Compound Buffer (per microplate): 20 mL Probenecid/Assay Buffer; 0.3 mM ouabain (10 mM ouabain in water can be stored in amber bottle/aluminum foil at room temperature); Test compound • 1× FluxOR™ Chloride-Free Buffer: Prepare 1× working solution in water. Can be stored at room temperature • Stimulant Buffer (prepared at 5× final concentration in 1× FluxOR™ Chloride-Free Buffer): 7.5 mM Thallium sulfate and 0.75 mM Potassium sulfate (to give a final assay concentration of 3 mM Thallium/0.3 mM Potassium). Store at 4° C. when not in use. If kept sterile, this solution is good for months. Assay Protocol—
The ROMK channel functional thallium flux assay is performed in 384 wells, using the FLIPR-Tetra instrument. HEK-hKir1.1 cells are seeded in Poly-D-Lysine microplates and kept in a 37° C.-10% CO2 incubator overnight. On the day of the experiment, the growth media is replaced with the FluxOR™ reagent loading buffer and incubated, protected from light, at ambient temperature (23-25° C.) for 90 min. The loading buffer is replaced with assay buffer±test compound followed by 30 min incubation at ambient temperature, where the Thallium/Potassium stimulant is added to the microplate.
• 1. Seed HEK-hKir1.1 cells (50 μl at 20,000 cells/well) in 384-well PDL coated Microplates • 2. […]

| IC50 | SMILES |
| --- | --- |
| 70 nM | Cc1cc2c(cc1C(O)CN1CCN(c3ccc4cc(C#N)ccc4c3)C(=O)C1)COC2=O (racemic) [Example 3, 6-{4-[2-Hydroxy-2-(6-methyl-1-oxo-1,3-dihydro-2-benzofuran-5-yl)ethyl]-2-oxopiperazin-1-yl}naphthalene-2-carbonitrile] |
| 60 nM | N#Cc1ccc2cc(N3CCN(CCc4ccc5c(c4)COC5=O)CC3=O)ccc2c1 [Example 1, 6-{2-Oxo-4-[2-(1-oxo-1,3-dihydro-2-benzofuran-5-yl)ethyl]piperazin-1-yl}naphthalene-2-carbonitrile] |
| 50 nM | Cc1c([C@@H](O)CN2CCN(c3ccc4cc(C#N)ccc4c3)C(=O)C2)ccc2c1COC2=O [Example 2, 6-{4-[(2R)-2-Hydroxy-2-(4-methyl-1-oxo-1,3-dihydro-2-benzofuran-5-yl)ethyl]-2-oxopiperazin-1-yl}naphthalene-2-carbonitrile] |
| 80 nM | Cc1c([C@@H](O)CN2CCN(c3cc4ccc(C#N)cc4cn3)C(=O)C2)ccc2c1COC2=O [Example 5, 3-{4-[(2R)-2-Hydroxy-2-(4-methyl-1-oxo-1,3-dihydro-2-benzofuran-5-yl)ethyl]-2-oxopiperazin-1-yl}isoquinoline-7-carbonitrile] |
| 90 nM | Cc1c([C@@H](O)CN2CCN(c3ccc4ccc(C#N)cc4c3)C(=O)C2)ccc2c1COC2=O [Example 6, 7-{4-[(2R)-2-Hydroxy-2-(4-methyl-1-oxo-1,3-dihydro-2-benzofuran-5-yl)ethyl]-2-oxopiperazin-1-yl}naphthalene-2-carbonitrile] |
| 40 nM | Cc1c([C@@H](O)CN2CCN(c3nc4cc(C#N)ccc4s3)C(=O)C2)ccc2c1COC2=O [Example 7, 2-{4-[(2R)-2-Hydroxy-2-(4-methyl-1-oxo-1,3-dihydro-2-benzofuran-5-yl)ethyl]-2-oxopiperazin-1-yl}-1,3-benzothiazole-5-carbonitrile] |
| 160 nM | Cc1c([C@@H](O)CN2CCN(c3ccc4cc(C#N)sc4n3)C(=O)C2)ccc2c1COC2=O [Example 8, 6-{4-[(2R)-2-Hydroxy-2-(4-methyl-1-oxo-1,3-dihydro-2-benzofuran-5-yl)ethyl]-2-oxopiperazin-1-yl}thieno-[2,3-b]pyridine-2-carbonitrile] |
| 90 nM | Cc1c([C@@H](O)CN2CCN(c3nc4ccc(C#N)cc4s3)C(=O)C2)ccc2c1COC2=O [Example 9, 2-{4-[(2R)-2-Hydroxy-2-(4-methyl-1-oxo-1,3-dihydro-2-benzofuran-5-yl)ethyl]-2-oxopiperazin-1-yl}-1,3-benzothiazole-6-carbonitrile] |
| 210 nM | Cc1c([C@@H](O)CN2CCN(c3ccc4cc(C#N)cnc4c3)C(=O)C2)ccc2c1COC2=O [Example 10, 7-{4-[(2R)-2-Hydroxy-2-(4-methyl-1-oxo-1,3-dihydro-2-benzofuran-5-yl)ethyl]-2-oxopiperazin-1-yl}quinoline-3-carbonitrile] |
| 140 nM | Cc1c([C@@H](O)CN2CCN(c3cnc4cc(C#N)ccc4c3)C(=O)C2)ccc2c1COC2=O [Example 11, 3-{4-[(2R)-2-Hydroxy-2-(4-methyl-1-oxo-1,3-dihydro-2-benzofuran-5-yl)ethyl]-2-oxopiperazin-1-yl}quinoline-7-carbonitrile] |
| 80 nM | Cc1cc2nc(N3CCN(C[C@H](O)c4ccc5c(c4C)COC5=O)CC3=O)ccc2cc1C#N [Example 12, 2-{4-[(2R)-2-Hydroxy-2-(4-methyl-1-oxo-1,3-dihydro-2-benzofuran-5-yl)ethyl]-2-oxopiperazin-1-yl}-7-methylquinoline-6-carbonitrile] |
| 150 nM | Cc1c([C@@H](O)CN2CCN(c3cc4ccc(C#N)c(C)c4cn3)C(=O)C2)ccc2c1COC2=O [Example 13, 3-{4-[(2R)-2-Hydroxy-2-(4-methyl-1-oxo-1,3-dihydro-2-benzofuran-5-yl)ethyl]-2-oxopiperazin-1-yl}-8-methylisoquinoline-7-carbonitrile] |
| 160 nM | Cc1c([C@@H](O)CN2CCN(c3ccc4cc(C#N)sc4c3)C(=O)C2)ccc2c1COC2=O [Example 14, 6-{4-[(2R)-2-Hydroxy-2-(4-methyl-1-oxo-1,3-dihydro-2-benzofuran-5-yl)ethyl]-2-oxopiperazin-1-yl}-1-benzothiophene-2-carbonitrile] |
| 220 nM | Cc1c([C@@H](O)CN2CCN(c3ccc4nc(S(C)(=O)=O)ccc4c3)C(=O)C2)ccc2c1COC2=O [Example 15, 4-[(2R)-2-hydroxy-2-(4-methyl-1-oxo-1,3-dihydro-2-benzofuran-5-yl)ethyl]-1-[2-(methylsulfonyl)quinolin-6-yl]piperazin-2-one] |
